In patent publication US8901138B2, “Sulfoximine substituted quinazolines for pharmaceutical compositions” (Boehringer Ingelheim International GmbH, priority 2012, dated 2014):

Key:
MNK2a = target: T1, MNK2a (Homo sapiens, UniProt Q9HBH9); test: MNK2a in vitro kinase assay (assay 1), ADP-Glo; format: biochemical; settings: preactivated GST-MNK2a, 20 μM ATP, read-out: MNK2 IC50
T1 construct: made in house
Procedure: A. MNK2a In Vitro Kinase Assay (Assay 1)
ASSAY SETUP: The inhibition of kinase activity of MNK2a was assessed using preactivated GST-MNK2a. The white, 384-well OptiPlate F plates were purchased from Perkin Elmer. The ADP-Glo Kinase Assay (including ultra pure ATP) was purchased from Promega (V9103). Activated MNK2a was obtained as described in WO2011/104340. The unlabeled eIF4E peptide (NH2-[…]—CONH2) (SEQ ID NO: 1), differing from Seq. ID No. 5 of WO 2011/104340 by the C-terminal —CONH2 group, was purchased from Thermo Fisher Scientific. All other materials were of highest grade commercially available. Compounds are tested in either serial dilutions or single dose concentrations. The compound stock solutions are 10 mM in 100% DMSO The serial compound dilutions are prepared in 100% DMSO followed by 1:27.3 intermediate dilution in assay buffer. The final DMSO concentration in assay will be <3%. In the 384-well plates 3 μl of test compound from the intermediate dilution is mixed with 4 μl of the activated MNK2 enzyme (final concentration of 10 nM) and 4 μl of the peptide (final concentration of 25 μM)/ultra pure ATP (final concentration of 20 μM), all dissolved in assay buffer. This step is followed by an incubation time of 90 min, then 10 μl of ADP Glo reagent are added, followed by 40 min of incubation. Then 20 μl of kinase detection reagent are admixed. The plates are sealed and after an incubation period of 30 min, the luminescence signal is measured in an Envision reader to determine the amount of produced ADP. All incubation steps are performed at room temperature. The assay buffer consists of 20 mM HEPES, 2 mM DTT, 0.01% BSA, 20 mM MgCl2 and 0.1% Pluronic F-127.
Each assay microtiter plate contains wells with vehicle controls instead of compound (1% DMSO in water) as reference for the high signal (100% CTL, high signal), and wells containing a potent MNK2 inhibitor (final 20 μM, 1% DMSO) as reference for low signal (0% CTL, low signal).
The luminescent signal generated is proportional to the ADP concentration produced and is correlated with activated MNK2 activity. The analysis of the data is performed by the calculation of the percentage of ATP consumption of activated MNK2 in the presence of the test compound compared to the consumption of ATP in the presence of activated MNK2 without compound. (RLU(sample)−RLU(low control))*100/(RLU(high value)−RLU(low control)) [RLU=relative luminescence units]
An inhibitor of the MNK2 enzyme will give values between 100% CTL (no inhibition) and 0% CTL (complete inhibition). Values of more than 100% CTL are normally related to compound/sample specific physico-chemical properties (e.g. solubility, light absorbance, fluorescence).
IC50 values based on dose response curves are calculated with the AssayExplorer software.

MNK1a = MNK1a (Homo sapiens, UniProt Q9BUB5); test: MNK1 in vitro kinase assay (assay 2), Z'-LYTE; format: biochemical; settings: for IC50: pre-activated GST-MNK1a
From the text: B. MNK1 In Vitro Kinase Assay (Assay 2)
MNK1 Data can be obtained from the MNK1 Z′-LYTE® assay. The MNK1 Z′-LYTE® screening protocol and assay conditions are also described on www.invitrogen.com.
The assay is described as follows:
The Z′-LYTE® biochemical assay employs a fluorescence-based, coupled-enzyme format and is based on the differential sensitivity of phosphorylated and non-phosphorylated peptides to proteolytic cleavage. The peptide substrate is labeled with two fluorophores—one at each end—that make up a FRET pair.
In the primary reaction, the kinase transfers the gamma-phosphate of ATP to a single tyrosine, serine or threonine residue in a synthetic FRET-peptide. In the secondary reaction, a site-specific protease recognizes and cleaves non-phosphorylated FRET-peptides. Phosphorylation of FRET-peptides suppresses cleavage by the Development Reagent. Cleavage disrupts FRET between the donor (i.e., coumarin) and acceptor (i.e., fluorescein) fluorophores on the FRET-peptide, whereas uncleaved, phosphorylated FRET-peptides maintain FRET. A ratiometric method, which calculates the ratio (the Emission Ratio) of donor emission to acceptor emission after excitation of the donor fluorophore at 400 nm, is used to quantitate reaction progress, as shown in the equation below. Emission Ratio=Coumarin Emission(445 nm)/Fluorescein Emission(520 nm)
ASSAY SETUP: The inhibition of kinase activity of MNK1a was assessed using pre-activated GST-MNK1a. The 2×MKNK1 (MNK1) mixture is prepared in 50 mM HEPES pH 7.5, 0.01% BRIJ-35, 10 mM MgCl2, 4 mM MnCl2, 1 mM EGTA, 2 mM DTT. The final 10 μL Kinase Reaction consists of 13.5-54 ng MKNK1 (MNK1) and 2 μM Ser/Thr 07 in 50 mM HEPES pH 7.5, 0.01% BRIJ-35, 10 mM MgCl2, 2 mM MnCl2, 1 mM EGTA, 1 mM DTT. After the 1 hour Kinase Reaction incubation, 5 μL of a 1:32768 dilution of Development Reagent A is added.
The Test Compounds are screened in 1% DMSO (final) in the well.
All Peptide/Kinase Mixtures are diluted to a 2× working concentration in the MNK1 Kinase Buffer.
All ATP Solutions are diluted to a 4× working concentration in Kinase Buffer (50 mM HEPES pH 7.5, 0.01% BRIJ-35, 10 mM MgCl2, 1 mM EGTA).
Development Reagent Solution:
The Development Reagent is diluted in Development Buffer
Bar-coded Corning, low volume NBS, 384-well plate (Corning Cat. #3676)
1. 2.5 μL-4× Test Compound
2. 5 μL-2× Peptide/Kinase Mixture
5. 60-minute Kinase Reaction incubation at room temperature
6. 5 μL-Development Reagent Solution
8. 60-minute Development Reaction incubation at room temperature
9. Read on fluorescence plate reader and analyze the data
The following equations are used for each set of data points: […]
Correction for Background Fluorescence: FSample−FITCFl Ctl
Emission Ratio (using values corrected for background fluorescence):Coumarin
Emission (445 nm)/Fluorescein Emission (520 nm)
% Phosphorylation (% Phos): 1−((Emission Ratio×F100%)−C100%)/((C0%−C100%)+[Emission Ratio×(F100%−F0%)])*100 % Inhibition: 1−(% PhosSample/% Phos0% Inhibition Ctl)*100 FI=Fluorescence Intensity C100%=Average Coumarin emission signal of the 100% Phos. Control C0%=Average Coumarin emission signal of the 0% Phos. Control F100%=Average Fluorescein emission signal of the 100% Phos. Control F0%=Average Fluorescein emission signal of the 0% Phos. Control Graphing Software
SelectScreen® Kinase Profiling Service uses XLfit from IDBS. The dose response curve is curve fit to model number 205 (sigmoidal dose-response model).

T1 sequence (Q9HBH9 whole entry): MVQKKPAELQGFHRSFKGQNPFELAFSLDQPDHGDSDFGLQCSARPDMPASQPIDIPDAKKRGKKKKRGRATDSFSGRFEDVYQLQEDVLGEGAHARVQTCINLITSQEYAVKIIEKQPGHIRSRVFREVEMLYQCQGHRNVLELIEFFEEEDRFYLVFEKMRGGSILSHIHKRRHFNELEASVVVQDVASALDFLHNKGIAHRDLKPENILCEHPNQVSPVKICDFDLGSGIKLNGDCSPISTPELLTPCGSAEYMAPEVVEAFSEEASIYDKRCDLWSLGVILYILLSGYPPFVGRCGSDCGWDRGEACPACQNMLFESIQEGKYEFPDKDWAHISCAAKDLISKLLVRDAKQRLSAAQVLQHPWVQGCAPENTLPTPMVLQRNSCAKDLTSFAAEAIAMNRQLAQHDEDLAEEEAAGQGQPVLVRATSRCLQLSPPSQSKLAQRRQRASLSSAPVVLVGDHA
MNK1a, sequence (Q9BUB5 1-424 isoform Q9BUB5-2): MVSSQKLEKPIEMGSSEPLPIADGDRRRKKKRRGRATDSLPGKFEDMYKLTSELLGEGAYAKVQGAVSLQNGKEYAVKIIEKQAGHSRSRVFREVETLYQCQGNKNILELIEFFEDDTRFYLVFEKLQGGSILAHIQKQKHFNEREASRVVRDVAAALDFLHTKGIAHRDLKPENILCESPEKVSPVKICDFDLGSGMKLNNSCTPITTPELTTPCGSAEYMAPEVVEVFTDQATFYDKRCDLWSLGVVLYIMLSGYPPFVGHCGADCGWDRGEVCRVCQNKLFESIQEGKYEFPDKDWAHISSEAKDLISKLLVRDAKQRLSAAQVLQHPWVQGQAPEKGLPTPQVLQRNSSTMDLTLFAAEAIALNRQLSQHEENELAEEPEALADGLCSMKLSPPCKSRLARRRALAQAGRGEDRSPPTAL

Structure (SMILES)	IC50 (MNK2a)	inhibition at 1 µM (MNK1a; compound concentration of 1 μM)	% Inhibition of MNK1 (MNK1a; compound concentration of 1 μM, 1 µM)	IC50 (MNK1a)
Cc1cc(N=S(C)(C)=O)cc2ncnc(Nc3ccc(F)cc3O[C@@H]3CO[C@@H]4OCC[C@@H]43)c12 (racemic) [Example 2.62]	11 nM	73%		
Cc1cc(N=S2(=O)CCCC2)cc2ncnc(Nc3ccc(F)cc3O[C@@H]3CO[C@@H]4OCC[C@@H]43)c12 (racemic) [Example 2.82]	5 nM	88%		
COC1CCCC(Oc2cc(F)ccc2Nc2ncnc3cc(N=S(C)(C)=O)cc(C)c23)C1 (racemic) [Example 4.12]	14 nM	84%		
CCS(C)(=O)=Nc1cc(C)c2c(Nc3ccc(F)cc3OC3CCOC3)ncnc2c1 (single isomer, unassigned) [Example 7.13]	2 nM	98%		
CCS(C)(=O)=Nc1cc(C)c2c(Nc3ccc(F)cc3OC3CCOC3)ncnc2c1 (single isomer, unassigned) [Example 7.14]	7 nM		91%	
Cc1cc(N=S(C)(C)=O)cc2ncnc(Nc3ccc(F)cc3O[C@@H]3CO[C@H]4[C@@H]3OC[C@@H]4O)c12 [Example 1.1]	1 nM	98%		
CO[C@@H]1CO[C@H]2[C@@H]1OC[C@H]2Oc1cc(F)ccc1Nc1ncnc2cc(N=S(C)(C)=O)cc(Cl)c12 [Example 1.2]	1 nM			13 nM
CS(C)(=O)=Nc1cc(Cl)c2c(Nc3ccc(F)cc3O[C@@H]3CO[C@@H]4CCO[C@@H]43)ncnc2c1 [Example 1.4]	1 nM	100%		25 nM
Cc1cc(N=S(C)(C)=O)cc2ncnc(Nc3cccnc3O[C@@H]3CO[C@H]4[C@@H]3OC[C@H]4O)c12 [Example 1.9]	6 nM	90%		
Cc1cc(N=S(C)(C)=O)cc2ncnc(Nc3ccccc3OC3CCOCC3)c12 [Example 1.12]	21 nM	92%		
CS(C)(=O)=Nc1cc(C2CC2)c2c(Nc3ccc(F)cc3O[C@H]3CCOC3)ncnc2c1 [Example 1.15]	3 nM	95%		
CS(C)(=O)=Nc1cc(Cl)c2c(Nc3ccc(F)cc3O[C@H]3CC[C@H](O)CC3)ncnc2c1 [Example 1.17]	2 nM			39 nM
Cc1cc(N=S(C)(C)=O)cc2ncnc(Nc3ccc(F)cc3O[C@@H]3CO[C@H]4[C@@H]3OC[C@H]4O)c12 [Example 1.18]	2 nM	100%		
CS(C)(=O)=Nc1cc(N2CCC2)c2c(Nc3ccc(F)cc3O[C@H]3CCOC3)ncnc2c1 [Example 1.19]	106 nM	42%		
CO[C@@H]1CO[C@H]2[C@@H]1OC[C@H]2Oc1cc(F)ccc1Nc1ncnc2cc(N=S(C)(C)=O)cc(Br)c12 [Example 1.20]	1 nM	100%		
CS(C)(=O)=Nc1cc(C(F)F)c2c(Nc3ccc(F)cc3O[C@H]3CCOC3)ncnc2c1 [Example 1.21]	2 nM			21 nM

Structure (SMILES)	IC50 (MNK2a)	inhibition at 1 µM (MNK1a; compound concentration of 1 μM)	% Inhibition of MNK1 (MNK1a; compound concentration of 1 μM, 1 µM)	IC50 (MNK1a)
CS(C)(=O)=Nc1cc(O)c2c(Nc3ccc(F)cc3O[C@H]3CCOC3)ncnc2c1 [Example 1.22]	25 nM	56%		
CS(C)(=O)=Nc1cc(OC(F)F)c2c(Nc3ccc(F)cc3O[C@H]3CCOC3)ncnc2c1 [Example 1.23]	4 nM	94%		
CO[C@@H]1CO[C@H]2[C@@H]1OC[C@H]2Oc1cc(F)ccc1Nc1ncnc2cc(N=S(C)(C)=O)cc(OC(F)F)c12 [Example 1.24]	1 nM			18 nM
CS(C)(=O)=Nc1cc(OC2CC2)c2c(Nc3ccc(F)cc3O[C@H]3CCOC3)ncnc2c1 [Example 1.25]	48 nM	66%		
O=S1(=Nc2cc(Cl)c3c(Nc4ccc(F)cc4O[C@H]4CCOC4)ncnc3c2)CCC1 [Example 1.26]	2 nM	100%		
O=S1(=Nc2cc(Cl)c3c(Nc4ccc(F)cc4O[C@@H]4CO[C@@H]5CCO[C@@H]54)ncnc3c2)CCC1 [Example 1.27]	1 nM			11 nM
Cc1cc(N=S(C)(C)=O)cc2ncnc(Nc3ccc(F)cc3OC3(C)CC3)c12 [Example 1.28]	4 nM	89%		
Cc1cc(N=S(C)(C)=O)cc2ncnc(Nc3ccc(F)cc3OC3(C)CCC3)c12 [Example 1.29]	2 nM	92%		
Cc1cc(N=S(C)(C)=O)cc2ncnc(Nc3ccc(F)cc3OC3(C(F)(F)F)CCC3)c12 [Example 1.30]	2 nM	89%		
Cc1cc(N=S(C)(C)=O)cc2ncnc(Nc3ccc(F)cc3OC3(C)COC3)c12 [Example 1.31]	13 nM	87%		
Cc1cc(N=S(C)(C)=O)cc2ncnc(Nc3ccc(F)cc3OC3(C)CCOC3)c12 (stereo not drawn) [Example 1.32]	7 nM			149 nM
Cc1cc(N=S(C)(C)=O)cc2ncnc(Nc3ccc(F)cc3OC3(C)CC3C)c12 (stereo not drawn) [Example 1.33]	2 nM			110 nM
Cc1cc(N=S(C)(C)=O)cc2ncnc(Nc3ccc(F)cc3OC3CC(O)C3(C)C)c12 (stereo not drawn) [Example 1.35]	5 nM	85%		
CO[C@@H]1CCC[C@H]1Oc1cc(F)ccc1Nc1ncnc2cc(N=S(C)(C)=O)cc(C)c12 [Example 1.36]	2 nM	84%		
Cc1cc(N=S(C)(C)=O)cc2ncnc(Nc3cccnc3O[C@H]3CCCNC3)c12 [Example 1.37]	4 nM			28 nM
